Test results taken from patent US7820817B2, “Modulators of muscarinic receptors” (Vertex Pharmaceuticals Incorporated, priority 2004, dated 2010).

Tested on: at least one muscarinic receptor, M1, M2, M3, M4
Assay: Muscarinic modulation activity (Table 3)
Format: cell-based
Set-up: key: +++: exhibited muscarinic modulation activity for at least one muscarinic receptor, M1, M2, M3, M4, at a concentration of less than 5 μM; ++: exhibited muscarinic modulation activity for at least one muscarinic receptor, M1, M2, M3, M4, at a concentration of between 30 μM and 5 μM; +: exhibited muscarinic modulation activity for at least one muscarinic receptor, M1, M2, M3, M4, at a concentration of greater than 30 μM; −: were not assayed or did not exhibit muscarinic modulation activity for at least one muscarinic receptor, M1, M2, M3, M4, at the concentration at which the assay was performed
Conditions: concentration at which modulation of at least one muscarinic receptor, M1, M2, M3, M4, was exhibited; CHO cells
Method: CHO cells expressing muscarinic receptors (M1 to M5) are grown as monolayers in tissue culture flasks at 37° C. in a humidified atmosphere containing 5% CO2 and passaged every 3-5 days. The growth media is Dulbecco's modified eagles medium (DMEM, Gibco Cat#12430-054), containing 25 mM Hepes and supplemented with Fetal Bovine Serum (Hyclone, cat#SH30071.03), 0.1 mM of MEM non-essential amino acids (GIBCO, Cat#11140-050), 1 mM MEM Sodium Pyruvate (GIBCO Cat#11360-070) and 100 units/ml of Penicillin G and 100 μg/ml of Streptomycin (GIBCO Cat#15140-122). The recombinant muscarinic receptor cell lines are grown under antibiotic pressure with media containing 25 μg/ml zeocin and 500 μg/ml G418 (M1-CHO), 4 μg/ml puromycin, 50 μg/ml zeocin and 2.5 μg/ml blasticidin (M2 and M4-CHO) or 50 μg/ml zeocin and 4 μg/ml puromycin (M3 and M5-CHO).
Cells are harvested at 80-90% confluence using Versene (GIBCO Cat#15040-066), collected by centrifugation and seeded 18-24 hrs prior to running the calcium assay at a density of 5,000-10,000 cells/well in […], clear-bottomed 384-well plates (BD Biocoat, poly-D-lysine, Cat#356663). The day of the experiment, the cells are washed with a plate washer (Bioteck Instruments, ELX 405) using bath1 buffer (140-mM NaCl, 4.5-mM KCl, 2-mM CaCl2, 1-mM MgCl2, 10-mM Hepes-Na, 10-mM Glucose, pH 7.4, with NaOH) containing 1 mM Probenecid. Next, the calcium dye Fluo-3 (25 μl/well of Fluo-3 AM at 4 μM, Molecular Probes F-1241, in Bath 1 buffer containing 1 mM Probenecid) is added to the 25 μl of Bath 1 remaining in each well after the plate wash and the dye is loaded at 37° C. in the tissue culture incubator for 60-90 min. The fluorescent dye is removed using the plate washer with Bath 1 containing 1 mM Probenecid, leaving 25 μl/well of this solution after the wash. Alternatively, cells can be loaded with the calcium indicator from Molecular Devices (Calcium 3 Assay Reagents, Cat #R7181) adding 5 μl of a 5× solution dye in Bath 1 containing 1 mM Probenecid (10 ml per dye flask cat#R7182 to generate a solution […]) to 20 μl of the same buffer. After loading for 60 min. the experiment can be run without having to remove the dye.
Compounds are prepared at a 2× fold concentration in a 96-well plate (round bottom, Costar Corning cat#3656), by reconstituting the pre-spotted compounds in bath 1 containing 1 mM probenecid. The final concentration DMSO is 0.5%, and the amount of DMSO is normalized across the assay plate. To determine an agonist action of the compounds on muscarinic receptors, the reconstituted compounds are added (25 μl compound/well) to the cell assay plate (containing 25 μl/well) using the multi-channel robotic system of the FLIPR 3 Instrument (Molecular Devices, Sunnyvale, Calif.). To determine a functional inhibitory action of the compounds on muscarinic receptors, the reconstituted compounds are added (25 μl compound/well) to the assay plate and pre-incubated for 15 min prior to adding 25 μl of Carbachol at 3× the EC80 for each muscarinic subtype. Alternatively, the compounds can be co-applied simultaneously with the agonist. In both assay modes, the fluorescence is recorded for 60 sec (excitation wavelength is […] and emission wavelength 540 nm) using the FLIPR 3 instrument.
The potency, efficacy and selectivity of the muscarinic compounds were evaluated by screening the compound activity across the whole family (M1 to M5 cells).
CHO cells expressing muscarinic receptors (M1 to M5) and containing a gene reporter system β-Lactamase) with transcriptional control mediated by calcium release (NFAT activation). See Zlokarnik, G; Negulescu, P. A.; Knapp, T. E.; Mere, L; Burres, N; Feng, L; Whitney, M; Roemer, K; Tsien, R. Y. Quantitation of transcription and clonal selection of single living cells with β-lactamase as reporter. Science, 1998 Jan. 2, 279(5347):84-8. The cells are grown as monolayers in tissue culture flasks at 37° C. in a humidified atmosphere containing 5% CO2 and passaged every 3-5 days. […]

SMILES	ACTIVITY (muscarinic modulation activity)
C1=CC2CC1CC2CN1CCC(n2nnc3ccccc32)CC1 (centres unmarked) [Compound 37, 1-[1-(5-bicyclo[2.2.1]hept-2-enylmethyl)-4-piperidyl]-1H-benzotriazole]	+ (exhibited muscarinic modulation activity for at least one muscarinic receptor, M1, M2, M3, M4, at a concentration of greater than 30 μM)
Cc1cccc(N2CCN(CC3CC4C=CC3C4)CC2)n1 (centres unmarked) [Compound 15, 1-(5-bicyclo[2.2.1]hept-2-enylmethyl)-4-(6-methyl-2-pyridyl)-piperazine]	++ (exhibited muscarinic modulation activity for at least one muscarinic receptor, M1, M2, M3, M4, at a concentration of between 30 μM and 5 μM)
N#Cc1cccnc1N1CCN(C2C3CC4CC(C3)CC2C4)CC1 (centres unmarked) [Compound 2, 2-[4-(2-adamantyl)piperazin-1-yl]nicotinonitrile]	++ (exhibited muscarinic modulation activity for at least one muscarinic receptor, M1, M2, M3, M4, at a concentration of between 30 μM and 5 μM)
FC(F)(F)c1cnc(N2CCN(CC3CC4C=CC3C4)CC2)c(Cl)c1 (centres unmarked) [Compound 74, 1-(5-bicyclo[2.2.1]hept-2-enylmethyl)-4-[3-chloro-5-(trifluoromethyl)-2-pyridyl]-piperazine]	−
C1=CC2CC1CC2CN1CCN(c2cnccn2)CC1 (centres unmarked) [Compound 39, 2-[4-(5-bicyclo[2.2.1]hept-2-enylmethyl)piperazin-1-yl]pyrazine]	+ (exhibited muscarinic modulation activity for at least one muscarinic receptor, M1, M2, M3, M4, at a concentration of greater than 30 μM)
Cc1ccc(C#N)c(N2CCN(CC3CC4C=CC3C4)CC2)n1 (centres unmarked) [Compound 62, 2-[4-(5-bicyclo[2.2.1]hept-2-enylmethyl)piperazin-1-yl]-6-methyl-nicotinonitrile]	+++ (exhibited muscarinic modulation activity for at least one muscarinic receptor, M1, M2, M3, M4, at a concentration of less than 5 μM)
CCOC(=O)N1C2CCC1CC(N1CCN(c3cc(C#N)ccn3)CC1)C2 (centres unmarked) [Compound 56, 3-[4-(4-cyano-2-pyridyl)piperazin-1-yl]-8-azabicyclo[3.2.1]octane-8-carboxylic acid ethyl ester]	+++ (exhibited muscarinic modulation activity for at least one muscarinic receptor, M1, M2, M3, M4, at a concentration of less than 5 μM)
C1=CC2CC1CC2CN1CCN(c2ccncc2)CC1 (centres unmarked) [Compound 41, 1-(5-bicyclo[2.2.1]hept-2-enylmethyl)-4-(4-pyridyl)piperazine]	+++ (exhibited muscarinic modulation activity for at least one muscarinic receptor, M1, M2, M3, M4, at a concentration of less than 5 μM)
Cc1cccnc1N1CCN(C2CC3CCC2C3)CC1 (centres unmarked) [Compound 60, 1-(3-methyl-2-pyridyl)-4-norbornan-2-yl-piperazine]	+ (exhibited muscarinic modulation activity for at least one muscarinic receptor, M1, M2, M3, M4, at a concentration of greater than 30 μM)
N#Cc1cc(-c2ccccc2)cnc1N1CCN(CC2CC3CCC2C3)CC1 (centres unmarked) [Compound 46, 2-[4-(norbornan-2-ylmethyl)piperazin-1-yl]-5-phenyl-nicotinonitrile]	++ (exhibited muscarinic modulation activity for at least one muscarinic receptor, M1, M2, M3, M4, at a concentration of between 30 μM and 5 μM)
Clc1cccnc1N1CCN(C2CC3CCC2C3)CC1 (centres unmarked) [Compound 7, 1-(3-chloro-2-pyridyl)-4-norbornan-2-yl-piperazine]	+++ (exhibited muscarinic modulation activity for at least one muscarinic receptor, M1, M2, M3, M4, at a concentration of less than 5 μM)
N#Cc1ccc(C(F)(F)F)nc1N1CCN(C2CC3CCC2C3)CC1 (centres unmarked) [Compound 3, 2-(4-norbornan-2-ylpiperazin-1-yl)-6-(trifluoromethyl)nicotinonitrile]	+ (exhibited muscarinic modulation activity for at least one muscarinic receptor, M1, M2, M3, M4, at a concentration of greater than 30 μM)
CCOC(=O)N1C2CCC1CC(N1CCN(c3ncc(CC)cn3)CC1)C2 (centres unmarked) [Compound 67, 3-[4-(5-ethylpyrimidin-2-yl)piperazin-1-yl]-8-azabicyclo[3.2.1]octane-8-carboxylic acid ethyl ester]	+++ (exhibited muscarinic modulation activity for at least one muscarinic receptor, M1, M2, M3, M4, at a concentration of less than 5 μM)
CCOC(=O)N1C2CCC1CC(N1CCN(c3ccc(C#N)cn3)CC1)C2 (centres unmarked) [Compound 66, 3-[4-(5-cyano-2-pyridyl)piperazin-1-yl]-8-azabicyclo[3.2.1]octane-8-carboxylic acid ethyl ester]	+++ (exhibited muscarinic modulation activity for at least one muscarinic receptor, M1, M2, M3, M4, at a concentration of less than 5 μM)
Cc1cc(C)nc(N2CCN(C3CC4CCC3C4)CC2)n1 (centres unmarked) [Compound 72, 4,6-dimethyl-2-(4-norbornan-2-ylpiperazin-1-yl)-pyrimidine]	−
CCOC(=O)N1C2CCC1CC(N1CCN(c3nc(C(F)(F)F)ccc3C#N)CC1)C2 (centres unmarked) [Compound 24, 3-[4-[3-cyano-6-(trifluoromethyl)-2-pyridyl]piperazin-1-yl]-8-azabicyclo[3.2.1]octane-8-carboxylic acid ethyl ester]	+++ (exhibited muscarinic modulation activity for at least one muscarinic receptor, M1, M2, M3, M4, at a concentration of less than 5 μM)
c1ccc2c(c1)nnn2C1CCN(C2CC3CCC2C3)CC1 (centres unmarked) [Compound 50, 1-(1-norbornan-2-yl-4-piperidyl)-1H-benzotriazole]	++ (exhibited muscarinic modulation activity for at least one muscarinic receptor, M1, M2, M3, M4, at a concentration of between 30 μM and 5 μM)
c1cnc(N2CCN(C3CC4CCC3C4)CC2)nc1 (centres unmarked) [Compound 71, 2-(4-norbornan-2-ylpiperazin-1-yl)pyrimidine]	++ (exhibited muscarinic modulation activity for at least one muscarinic receptor, M1, M2, M3, M4, at a concentration of between 30 μM and 5 μM)
Cc1cnc(C)c(N2CCN(CC3CC4C=CC3C4)CC2)n1 (centres unmarked) [Compound 16, 3-[4-(5-bicyclo[2.2.1]hept-2-enylmethyl)piperazin-1-yl]-2,5-dimethyl-pyrazine]	+++ (exhibited muscarinic modulation activity for at least one muscarinic receptor, M1, M2, M3, M4, at a concentration of less than 5 μM)
CCOC(=O)N1C2CCC1CC(N1CCN(c3ccc(C(C)=O)cn3)CC1)C2 (centres unmarked) [Compound 51, 3-[4-(5-acetyl-2-pyridyl)piperazin-1-yl]-8-azabicyclo[3.2.1]octane-8-carboxylic acid ethyl ester]	+++ (exhibited muscarinic modulation activity for at least one muscarinic receptor, M1, M2, M3, M4, at a concentration of less than 5 μM)
